The supplement of paper PMC10307832

Experiments:
Assay in all cases: relative viability (nuclei count vs DMSO), 5 days (fraction); higher = more cells survive
AT9283 + Decitabine = compound: O=C(Nc1c[nH]nc1-c1nc2ccc(CN3CCOCC3)cc2[nH]1)NC1CC1 [AT9283] + Nc1ncn([C@H]2C[C@H](O)[C@@H](CO)O2)c(=O)n1 [Decitabine] (partner 2 µM)
Summary of the method: (§1)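 Relative viability divides the nuclei count in treated wells by that in vehicle wells. Lung cancer cell lines were seeded in 1536-well plates, dosed by pin tool the next day, and fixed and stained after 5 days in one step with final 0.05% Triton X-100, 1% formaldehyde and 1 ug/ml Hoechst. Dosing was a single drug or a fixed anchor-drug dose plus five library-drug doses (not always all listed) in √10 steps, and values are medians of duplicate plates imaged at 4×.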

Erlotinib + Pemetrexed = compound: C#Cc1cccc(Nc2ncnc3cc(OCCOC)c(OCCOC)cc23)c1 [Erlotinib] + Nc1nc2[nH]cc(CCc3ccc(C(=O)N[C@@H](CCC(=O)O)C(=O)O)cc3)c2c(=O)[nH]1 [Pemetrexed] (partner 0.2 µM)
Summary of the method: as §1

Erlotinib + AZD7762 = compound: C#Cc1cccc(Nc2ncnc3cc(OCCOC)c(OCCOC)cc23)c1 [Erlotinib] + NC(=O)Nc1cc(-c2cccc(F)c2)sc1C(=O)N[C@H]1CCCNC1 [AZD7762] (partner 0.2 µM)
Summary of the method: as §1

AT9283 + Tozasertib = compound: O=C(Nc1c[nH]nc1-c1nc2ccc(CN3CCOCC3)cc2[nH]1)NC1CC1 [AT9283] + Cc1cc(Nc2cc(N3CCN(C)CC3)nc(Sc3ccc(NC(=O)C4CC4)cc3)n2)n[nH]1 [Tozasertib] (partner 0.1 µM)
Summary of the method: as §1

Erlotinib + Linsitinib = compound: C#Cc1cccc(Nc2ncnc3cc(OCCOC)c(OCCOC)cc23)c1 [Erlotinib] + C[C@]1(O)C[C@@H](c2nc(-c3ccc4ccc(-c5ccccc5)nc4c3)c3c(N)nccn32)C1 [Linsitinib] (partner 1 µM)
Summary of the method: as §1

NCI-H441
relative viability (AT9283 + Decitabine; first compound 0.003 µM): 0.245 | relative viability (AT9283 + Decitabine; first compound 0.03 µM): 0.281 | relative viability (AT9283 + Decitabine; first compound 0.09487 µM): 0.202 | relative viability (AT9283 + Decitabine; first compound 0.3 µM): 0.217 | relative viability (Erlotinib + Pemetrexed; first compound 0.02 µM): 0.284 | relative viability (Erlotinib + Pemetrexed; first compound 0.2 µM): 0.275 | relative viability (Erlotinib + Pemetrexed; first compound 0.6325 µM): 0.259 | relative viability (Erlotinib + Pemetrexed; first compound 2 µM): 0.275 | relative viability (Erlotinib + AZD7762; first compound 0.02 µM): 1.2 | relative viability (Erlotinib + AZD7762; first compound 0.2 µM): 1.06 | relative viability (Erlotinib + AZD7762; first compound 0.6325 µM): 1.1 | relative viability (Erlotinib + AZD7762; first compound 2 µM): 1.11 | relative viability (AT9283 + Tozasertib; first compound 0.003 µM): 0.707 | relative viability (AT9283 + Tozasertib; first compound 0.03 µM): 0.715 | relative viability (AT9283 + Tozasertib; first compound 0.09487 µM): 0.361 | relative viability (AT9283 + Tozasertib; first compound 0.3 µM): 0.31 | relative viability (Erlotinib + Linsitinib; first compound 0.02 µM): 0.686 | relative viability (Erlotinib + Linsitinib; first compound 0.2 µM): 0.746 | relative viability (Erlotinib + Linsitinib; first compound 0.6325 µM): 0.569 | relative viability (Erlotinib + Linsitinib; first compound 2 µM): 0.326
